Measurements published in patent US4876359A, “Novel gamma-butyrolactone derivatives” (SS Pharmaceutical Co., Ltd., priority 1986, dated 1989).
pIC50: −log10 of the molar value.

target: T1, Angiotensin Converting Enzyme (ACE) (Oryctolagus cuniculus, UniProt P12822); assay: ACE inhibitory activity after incubation in rat plasma (Method 2); assay type: biochemical, rabbit; conditions: pre-incubated in rat plasma at 37° C. for 1 hour, dihydrochlorides, read-out: ACE inhibitory activity concentration (IC50)
T1 construct: Lyophilized powder (1 g) of rabbit lungs (product of Pel-Freez Biologicals Company) was extracted; tissue Pel-Freez Biologicals Company; host or cells: rabbit lungs, lyophilized powder; 40,000 g supernatant of a phosphate buffer extract
T1 sequence (P12822 34-1310): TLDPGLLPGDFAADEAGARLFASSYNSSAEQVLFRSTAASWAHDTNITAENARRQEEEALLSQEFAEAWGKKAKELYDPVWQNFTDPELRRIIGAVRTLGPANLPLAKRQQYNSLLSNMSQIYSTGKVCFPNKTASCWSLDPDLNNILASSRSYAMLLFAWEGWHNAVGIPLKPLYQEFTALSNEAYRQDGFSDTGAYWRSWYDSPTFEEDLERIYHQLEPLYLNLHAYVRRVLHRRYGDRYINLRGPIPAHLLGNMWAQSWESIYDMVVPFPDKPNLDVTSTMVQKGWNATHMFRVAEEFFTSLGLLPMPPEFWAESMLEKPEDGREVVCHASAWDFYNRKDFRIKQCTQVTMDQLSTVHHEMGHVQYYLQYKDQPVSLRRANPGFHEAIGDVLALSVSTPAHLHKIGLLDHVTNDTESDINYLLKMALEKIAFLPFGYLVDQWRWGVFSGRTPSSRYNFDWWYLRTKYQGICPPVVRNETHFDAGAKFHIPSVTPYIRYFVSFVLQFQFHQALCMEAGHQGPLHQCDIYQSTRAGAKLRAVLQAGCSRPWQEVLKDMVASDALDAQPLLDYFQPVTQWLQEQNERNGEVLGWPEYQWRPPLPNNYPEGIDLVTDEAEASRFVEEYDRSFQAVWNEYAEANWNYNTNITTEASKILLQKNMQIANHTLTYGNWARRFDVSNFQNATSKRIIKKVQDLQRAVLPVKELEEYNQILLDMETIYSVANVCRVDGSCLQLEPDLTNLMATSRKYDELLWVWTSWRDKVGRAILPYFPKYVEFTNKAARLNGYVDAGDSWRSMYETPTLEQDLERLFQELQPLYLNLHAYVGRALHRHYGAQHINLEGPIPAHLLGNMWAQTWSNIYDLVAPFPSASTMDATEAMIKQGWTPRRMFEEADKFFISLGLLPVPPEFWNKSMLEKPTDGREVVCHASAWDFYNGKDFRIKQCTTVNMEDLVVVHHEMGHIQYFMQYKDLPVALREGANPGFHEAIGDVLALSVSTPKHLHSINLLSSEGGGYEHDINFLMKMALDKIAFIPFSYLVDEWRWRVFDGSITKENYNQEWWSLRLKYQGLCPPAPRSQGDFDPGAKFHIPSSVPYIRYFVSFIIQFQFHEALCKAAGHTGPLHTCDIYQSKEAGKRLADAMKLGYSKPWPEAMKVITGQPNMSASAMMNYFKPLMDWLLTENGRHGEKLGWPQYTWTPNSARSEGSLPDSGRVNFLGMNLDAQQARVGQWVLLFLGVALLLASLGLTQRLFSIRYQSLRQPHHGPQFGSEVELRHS
Protocol: (§1) The ACE inhibitory activities of the certain compounds (I) of this invention were determined by measuring their ACE activities in accordance with the method reported by Neels et al. [Clinical Chemistry, 29, 1399 (1983)].
(§2) Lyophilized powder (1 g) of rabbit lungs (product of Pel-Freez Biologicals Company) was extracted with 10 ml of a 50 mM buffer of potassium phosphate (pH 8.3) and a centrifugation supernatant (40,000 g×40 minutes) was used as an enzyme solution. Each test compound was dissolved at a concentration of 1 mg/ml in water, methanol or dimethyl sulfoxide depending on its solubility, followed by dilution with water to provide test solutions.
(§3) Added to 10 μl of each of the test solutions of various concentrations was 100 μl of a mixed reactant (pH 8.3) containing 50 mM of N-2-hydroxyethylpiperazine-N'-2-ethanesulfonic acid (HEPES), 300 mM of NaCl, 400 mM of Na2 SO4 and 30 mM of hippurylglycylglycine, followed by an addition of 10 μl of the enzyme solution to conduct a reaction at 37° C. for 30 minutes. To the reaction mixture, 100 μl of a sodium tungstate solution (100 g/l) and 100 μl of 0.33M sulfuric acid were added to terminate the reaction, followed by a further addition of 1 ml of water. The resultant mixture was centrifuged to collect 750 μl of a supernatant, to which 1 ml of a 100 mM borate buffer (pH 9.6) was added. Added further was 50 μl of a 60 mM solution of sodium 2,4,6-tri-nitrobenzenesulfonate. After warming the mixture at 37° C. for 15 minutes, its absorbance was measured at 420 nm. The inhibition rates at the various concentrations were calculated and IC50 was then determined by a method known per se in the art.
Mixed to 1800 μl of rat plasma was 200 μl of each test solution, followed by incubation at 37° C. for 1 hour. The resulting mixture was then diluted with a 0.1M Tris-HCl buffer (pH 8.3). The procedure of Method 1 was thereafter followed to measure the ACE inhibitory activity.

Row | pIC50 | Structure (SMILES)
1 | 8.33 | CCCCCCC1CC(N[C@@H](CCCCN)C(=O)N2CCC[C@H]2C(=O)O)C(=O)O1 (single isomer, unassigned) [Compound 35, N^α -(2-oxo-5-hexyl-3-tetrahydrofuranyl)-L-lysyl-L-proline]
2 | 8.24 | CCCCC1CC(N[C@@H](CCCCN)C(=O)N2CCC[C@H]2C(=O)O)C(=O)O1 (single isomer, unassigned) [Compound 37, N^α -(2-oxo-5-butyl-3-tetrahydrofuranyl)-L-lysyl-L-proline]
3 | 8.40 | CCCCCC1CC(N[C@@H](CCCCN)C(=O)N2CCC[C@H]2C(=O)O)C(=O)O1 (single isomer, unassigned) [Compound 38, N^α -(2-oxo-5-pentyl-3-tetrahydrofuranyl)-L-lysyl-L-proline]

target: T1, Angiotensin Converting Enzyme (ACE); assay: ACE inhibitory activity (Method 1, rabbit lung enzyme, hippurylglycylglycine); assay type: biochemical; conditions: pH 8.3, 37° C., 30 minutes, hydrochlorides, read-out: ACE inhibitory activity concentration (IC50)
Protocol: as §1, §2, §3

Row | pIC50 | Structure (SMILES)
4 | 8.15 | CCCCCCC1CC(N[C@@H](C)C(=O)N2CCC[C@H]2C(=O)O)C(=O)O1 (single isomer, unassigned) [Compound 14, N-(2-oxo-5-hexyl-3-tetrahydrofuranyl)-L-alanyl-L-proline]
5 | 8.14 | CCCCCC1CC(N[C@@H](C)C(=O)N2CCC[C@H]2C(=O)O)C(=O)O1 (single isomer, unassigned) [Compound 19, N-(2-oxo-5-pentyl-3-tetrahydrofuranyl)-L-alanyl-L-proline]
6 | 8.24 | CCCCCCCC1CC(N[C@@H](C)C(=O)N2CCC[C@H]2C(=O)O)C(=O)O1 (single isomer, unassigned) [Compound 20, N-(2-oxo-5-heptyl-3-tetrahydrofuranyl)-L-alanyl-L-proline]
7 | 8.54 | CCCCCCCCC1CC(N[C@@H](C)C(=O)N2CCC[C@H]2C(=O)O)C(=O)O1 (single isomer, unassigned) [Compound 21, N-(2-oxo-5-octyl-3-tetrahydrofuranyl)-L-alanyl-L-proline]
8 | 8.52 | CCCCCCCCCCC1CC(N[C@@H](C)C(=O)N2CCC[C@H]2C(=O)O)C(=O)O1 (single isomer, unassigned) [Compound 22, N-(2-oxo-5-decanyl-3-tetrahydrofuranyl)-L-alanyl-L-proline]
9 | 7.85 | C[C@H](N[C@H]1CC(c2ccccc2)OC1=O)C(=O)N1CCC[C@H]1C(=O)O (stereo partly drawn) [Comparative compound, reference compound]
